Data on 15 compounds can be found in ChEMBL document CHEMBL3259577, “Antagonists of the kappa opioid receptor” (Bioorg Med Chem Lett, 2014).

Data set [1] deals with Kappa-type opioid receptor (Cavia porcellus, UniProt P41144). Description: Antagonist activity at kappa opioid receptor in guinea pig ileum assessed as inhibition of U50488-stimulated [35S]-GTP[gammaS] binding. The data set is classed as functional, tissue-based. The settings on record: read-out: pA2 (converted). (GTPγS is a poorly hydrolysed GTP analogue; its binding reports G protein activation.)

The target of data set [2] is T1, Delta-type opioid receptor (Homo sapiens, UniProt P41143). Put plainly: Displacement of [3H]diprenorphine from delta opioid receptor (unknown origin) expressed in CHO cells membranes. The data set is classed as cell membranes. (Displacement assays read how much labelled ligand stays bound in the presence of the test substance.)
For data set [3], the target named is T2, Mu-type opioid receptor (Homo sapiens, UniProt P35372). Put plainly: Displacement of [3H]diprenorphine from mu opioid receptor (unknown origin) expressed in CHO cells membranes. The data set is classed as cell membranes.
The target in data set [4] is T3, Mu-type opioid receptor (Cavia porcellus, UniProt P97266). Description: Antagonist activity at mu opioid receptor in guinea pig ileum assessed as inhibition of DAMGO-stimulated [35S]-GTP[gammaS] binding. The settings on record: read-out: pA2 (converted). The data set is classed as functional, tissue-based.
The target of data set [5] is T4, Kappa-type opioid receptor (Homo sapiens, UniProt P41145). Put plainly: Displacement of [3H]diprenorphine from kappa opioid receptor (unknown origin) expressed in CHO cells membranes. The data set is classed as cell membranes.
The target of data set [6] is Muscarinic acetylcholine receptor M3 (Homo sapiens, UniProt P20309). Description: Binding affinity to muscarinic M3 receptor (unknown origin).
Data set [7] addresses Muscarinic acetylcholine receptor M2 (Homo sapiens, UniProt P08172). Description: Binding affinity to muscarinic M2 receptor (unknown origin).
Data set [8] deals with T1, Delta-type opioid receptor. Description: Inhibition of delta opioid receptor (unknown origin) using SNC-80 by high content imaging beta-arrestin translocation assay.
Data set [9] concerns the target Muscarinic acetylcholine receptor M4 (Homo sapiens, UniProt P08173). Description: Binding affinity to muscarinic M4 receptor (unknown origin).
Data set [10] addresses Sigma non-opioid intracellular receptor 1 (Homo sapiens, UniProt Q99720). Put plainly: Binding affinity to sigma-1 receptor (unknown origin).
Data set [11] has as its target T4, Kappa-type opioid receptor. Description: Inhibition of kappa opioid receptor (unknown origin) using dynorphin A by DiscoveryRx b-arrestin PathHunter assay.
The target in data set [12] is T4, Kappa-type opioid receptor. Description: Inhibition of kappa opioid receptor (unknown origin) using dynorphin A by high content imaging beta-arrestin translocation assay.
Data set [13] deals with T2, Mu-type opioid receptor. Put plainly: Inhibition of mu opioid receptor (unknown origin) using DAMGO by high content imaging beta-arrestin translocation assay.
The target in data set [14] is T2, Mu-type opioid receptor. Put plainly: Agonist activity at human cloned mu opioid receptor expressed in CHO cells assessed as stimulation of [35S]-GTP[gammaS] binding. In kind it is cell-based.
Data set [15] has as its target T4, Kappa-type opioid receptor. Put plainly: Agonist activity at human cloned kappa opioid receptor expressed in CHO cells assessed as stimulation of [35S]-GTP[gammaS] binding. In kind it is functional, cell-based.
Data set [16] deals with T1, Delta-type opioid receptor. Put plainly: Agonist activity at human cloned delta opioid receptor expressed in CHO cells assessed as stimulation of [35S]-GTP[gammaS] binding. The data set is classed as functional, cell-based.
For data set [17], the species on record is Cavia porcellus. Description: (§1) Antagonist activity at delta opioid receptor in guinea pig caudate assessed as inhibition of SNC-80-stimulated [35S]-GTP[gammaS] binding.
Data set [18] addresses Mu-type opioid receptor (Cavia porcellus) (UniProt P97266). Description: (§2) Antagonist activity at mu opioid receptor in guinea pig caudate assessed as inhibition of DAMGO-stimulated [35S]-GTP[gammaS] binding. In kind it is functional.
Data set [19] concerns the target Kappa-type opioid receptor (Cavia porcellus) (UniProt P41144).
The target in data set [20] is T3, Mu-type opioid receptor. The data set is described as §2. In kind it is functional.
A short description of data set [21]: as §1. On the set-up: species or system Cavia porcellus.
For data set [22], the system named is Rattus norvegicus. Put plainly: Analgesic activity in po dosed rat assessed as inhibition of formalin response. In kind it is functional.
Data set [23] is described as follows: Cmax in rat at 10 mg/kg, po. The data set is classed as ADME, organism-based. On the set-up: dose 10 mg/kg, route oral. The settings on record: in vivo.
A short description of data set [24]: Half life in rat at 1 mg/kg, iv. The data set is classed as ADME, organism-based. On the set-up: dose 1 mg/kg, route intravenous. The conditions noted are these: in vivo.
A short description of data set [25]: Half life in rat at 10 mg/kg, po. The data set is classed as ADME, organism-based. The conditions noted are these: in vivo. On the set-up: dose 10 mg/kg, route oral.
Data set [26] can be described thus: Oral bioavailability in rat at 10 mg/kg. In kind it is ADME, organism-based. The conditions noted are these: in vivo.
The nature of data set [27]: AUC in rat at 1 mg/kg, iv. Further details: dose 1 mg/kg, route intravenous. In kind it is ADME, organism-based. The conditions noted are these: plasma.
Data set [28] can be described thus: Tmax in rat at 1 mg/kg, iv. On the set-up: dose 1 mg/kg, route intravenous. The settings on record: in vivo. The data set is classed as ADME, organism-based.
Data set [29] is filed under the species Homo sapiens. Description: Selectivity ratio for OPRK (unknown origin) to OPRM (unknown origin).
Data set [30] in a line: Tmax in rat at 10 mg/kg, po. In kind it is ADME, organism-based. On the set-up: dose 10 mg/kg, route oral. The settings on record: in vivo.
Data set [31] can be described thus: Clearance in rat at 1 mg/kg, iv. In kind it is ADME, organism-based. On the set-up: dose 1 mg/kg, route intravenous. The conditions noted are these: in vivo.
A short description of data set [32]: Cmax in rat at 1 mg/kg, iv. The data set is classed as ADME, organism-based. On the set-up: dose 1 mg/kg, route intravenous. The settings on record: in vivo.
Data set [33] can be described thus: AUC in rat at 10 mg/kg, po. The data set is classed as ADME, organism-based. On the set-up: dose 10 mg/kg, route oral. The conditions noted are these: plasma.
For data set [34], the system named is Rattus norvegicus. Put plainly: Reduction in spiradoline-induced sc dosed rat plasma prolactin levels. In kind it is functional. The settings on record: read-out: ID50 (the source's name).
Data set [35] has as its target Kappa-type opioid receptor (Rattus norvegicus) (UniProt P34975). Put plainly: Displacement of [3H]CI977 from rat forebrain OPRK assessed as maximal binding after 30 mins.
Data set [36] concerns the target Mu-type opioid receptor (Rattus norvegicus) (UniProt P33535). Description: Displacement of [3H]DAMGO from rat forebrain OPRM.
Data set [37] has as its target Kappa-type opioid receptor (Rattus norvegicus) (UniProt P34975). Put plainly: Displacement of [3H]CI977 from rat forebrain OPRK.
The target in data set [38] is T4, Kappa-type opioid receptor. Put plainly: Antagonist activity at human cloned kappa opioid receptor expressed in CHO cells assessed as inhibition of Dynorphin A-stimulated [35S]-GTP[gammaS] binding. In kind it is functional, cell-based.
Data set [39] concerns the target T2, Mu-type opioid receptor. Description: Antagonist activity at human cloned mu opioid receptor expressed in CHO cells assessed as inhibition of DAMGO-stimulated [35S]-GTP[gammaS] binding. The data set is classed as cell-based.
The species named for data set [40] is Mus musculus. Description: Antinociceptive activity in mouse assessed as reversal of U50488-induced withdrawl latencies. In kind it is functional.

Structures are written as SMILES. Peptide text beside a SMILES is read from it. Some results are limits rather than exact numbers.

T4 sequence (P41145 whole entry): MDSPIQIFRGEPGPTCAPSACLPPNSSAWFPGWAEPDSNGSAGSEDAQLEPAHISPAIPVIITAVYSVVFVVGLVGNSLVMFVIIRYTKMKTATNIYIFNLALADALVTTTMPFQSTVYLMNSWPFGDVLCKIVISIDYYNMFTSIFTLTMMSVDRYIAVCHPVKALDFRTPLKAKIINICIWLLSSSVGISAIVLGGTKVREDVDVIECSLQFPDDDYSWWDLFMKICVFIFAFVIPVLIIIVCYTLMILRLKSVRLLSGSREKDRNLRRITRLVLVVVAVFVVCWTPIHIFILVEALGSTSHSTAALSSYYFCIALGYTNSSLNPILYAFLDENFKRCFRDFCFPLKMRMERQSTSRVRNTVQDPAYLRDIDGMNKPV
T2 sequence (P35372 whole entry): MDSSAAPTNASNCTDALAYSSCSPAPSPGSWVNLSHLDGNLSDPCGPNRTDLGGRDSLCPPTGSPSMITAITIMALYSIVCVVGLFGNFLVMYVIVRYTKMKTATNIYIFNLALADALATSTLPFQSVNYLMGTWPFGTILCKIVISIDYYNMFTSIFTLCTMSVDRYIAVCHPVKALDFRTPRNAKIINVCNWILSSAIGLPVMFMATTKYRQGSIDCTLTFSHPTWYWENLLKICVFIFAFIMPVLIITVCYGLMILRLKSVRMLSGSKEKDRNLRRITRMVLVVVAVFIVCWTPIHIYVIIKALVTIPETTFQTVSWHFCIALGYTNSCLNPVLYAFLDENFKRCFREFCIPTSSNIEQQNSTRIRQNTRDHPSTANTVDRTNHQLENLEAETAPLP
Sequence of Kappa-type opioid receptor (Cavia porcellus, UniProt P41144) (P41144 whole entry): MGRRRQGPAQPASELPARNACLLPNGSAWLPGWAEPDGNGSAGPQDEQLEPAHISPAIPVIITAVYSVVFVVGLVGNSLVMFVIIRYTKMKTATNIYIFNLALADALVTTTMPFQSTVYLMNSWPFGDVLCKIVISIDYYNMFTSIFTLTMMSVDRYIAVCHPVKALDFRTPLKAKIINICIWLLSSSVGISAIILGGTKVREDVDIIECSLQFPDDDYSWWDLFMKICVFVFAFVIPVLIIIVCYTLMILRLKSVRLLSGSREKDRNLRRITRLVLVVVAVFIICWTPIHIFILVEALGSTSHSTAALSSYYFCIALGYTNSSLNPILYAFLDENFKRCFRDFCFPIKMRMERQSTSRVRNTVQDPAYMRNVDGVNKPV
T1 sequence (P41143 whole entry): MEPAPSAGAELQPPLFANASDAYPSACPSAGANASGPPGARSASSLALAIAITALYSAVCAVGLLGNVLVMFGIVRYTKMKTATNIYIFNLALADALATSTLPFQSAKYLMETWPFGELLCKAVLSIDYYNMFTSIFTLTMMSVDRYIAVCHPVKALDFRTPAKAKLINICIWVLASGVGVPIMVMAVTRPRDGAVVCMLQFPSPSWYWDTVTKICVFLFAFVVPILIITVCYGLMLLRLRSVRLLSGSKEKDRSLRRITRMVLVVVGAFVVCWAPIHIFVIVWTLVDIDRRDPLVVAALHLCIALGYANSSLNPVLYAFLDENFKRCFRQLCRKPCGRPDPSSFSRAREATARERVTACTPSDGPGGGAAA
T3 sequence (P97266 whole entry): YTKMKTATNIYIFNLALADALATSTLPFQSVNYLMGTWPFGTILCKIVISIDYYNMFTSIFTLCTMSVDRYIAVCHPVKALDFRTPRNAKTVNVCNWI
Sequence of Kappa-type opioid receptor (Rattus norvegicus) (P34975 whole entry): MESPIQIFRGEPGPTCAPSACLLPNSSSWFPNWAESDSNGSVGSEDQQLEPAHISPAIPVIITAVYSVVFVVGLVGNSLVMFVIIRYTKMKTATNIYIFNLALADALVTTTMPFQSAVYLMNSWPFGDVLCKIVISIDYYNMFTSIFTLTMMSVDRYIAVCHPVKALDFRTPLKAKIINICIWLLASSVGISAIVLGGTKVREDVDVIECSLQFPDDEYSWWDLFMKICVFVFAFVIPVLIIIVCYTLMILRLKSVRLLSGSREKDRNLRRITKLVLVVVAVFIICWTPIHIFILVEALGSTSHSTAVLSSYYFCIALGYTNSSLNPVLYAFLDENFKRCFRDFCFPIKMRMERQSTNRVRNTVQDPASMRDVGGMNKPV
Sequence of Kappa-type opioid receptor (Cavia porcellus) (P41144 whole entry): as the sequence (P41144 whole entry) above
Sequence of Muscarinic acetylcholine receptor M2 (P08172 whole entry): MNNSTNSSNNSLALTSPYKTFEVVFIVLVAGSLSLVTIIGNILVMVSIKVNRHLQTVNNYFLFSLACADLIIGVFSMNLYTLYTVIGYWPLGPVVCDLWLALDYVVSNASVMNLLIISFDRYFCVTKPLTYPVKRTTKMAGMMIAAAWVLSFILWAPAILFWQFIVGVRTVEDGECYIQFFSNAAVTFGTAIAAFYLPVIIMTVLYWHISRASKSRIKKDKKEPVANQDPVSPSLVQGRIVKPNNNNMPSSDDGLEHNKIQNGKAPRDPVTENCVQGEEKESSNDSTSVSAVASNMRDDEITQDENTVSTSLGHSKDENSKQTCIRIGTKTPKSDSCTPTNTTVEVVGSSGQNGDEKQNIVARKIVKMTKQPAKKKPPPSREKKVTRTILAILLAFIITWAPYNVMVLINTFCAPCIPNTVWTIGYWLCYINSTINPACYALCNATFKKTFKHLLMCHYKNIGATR
Sequence of Mu-type opioid receptor (Rattus norvegicus) (P33535 whole entry): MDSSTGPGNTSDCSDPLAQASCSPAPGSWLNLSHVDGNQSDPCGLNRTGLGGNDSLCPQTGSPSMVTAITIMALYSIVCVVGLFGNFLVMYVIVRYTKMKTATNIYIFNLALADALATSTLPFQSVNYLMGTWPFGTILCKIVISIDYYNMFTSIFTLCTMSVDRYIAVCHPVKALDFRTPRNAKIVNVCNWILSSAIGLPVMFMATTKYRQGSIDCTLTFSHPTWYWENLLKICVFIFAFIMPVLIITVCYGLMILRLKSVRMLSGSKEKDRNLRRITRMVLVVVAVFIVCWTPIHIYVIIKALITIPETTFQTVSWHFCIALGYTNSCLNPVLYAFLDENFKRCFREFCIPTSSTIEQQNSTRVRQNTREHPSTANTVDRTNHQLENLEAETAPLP
Sequence of Mu-type opioid receptor (Cavia porcellus) (P97266 whole entry): as the sequence (P97266 whole entry) above
Sequence of Muscarinic acetylcholine receptor M4 (P08173 whole entry): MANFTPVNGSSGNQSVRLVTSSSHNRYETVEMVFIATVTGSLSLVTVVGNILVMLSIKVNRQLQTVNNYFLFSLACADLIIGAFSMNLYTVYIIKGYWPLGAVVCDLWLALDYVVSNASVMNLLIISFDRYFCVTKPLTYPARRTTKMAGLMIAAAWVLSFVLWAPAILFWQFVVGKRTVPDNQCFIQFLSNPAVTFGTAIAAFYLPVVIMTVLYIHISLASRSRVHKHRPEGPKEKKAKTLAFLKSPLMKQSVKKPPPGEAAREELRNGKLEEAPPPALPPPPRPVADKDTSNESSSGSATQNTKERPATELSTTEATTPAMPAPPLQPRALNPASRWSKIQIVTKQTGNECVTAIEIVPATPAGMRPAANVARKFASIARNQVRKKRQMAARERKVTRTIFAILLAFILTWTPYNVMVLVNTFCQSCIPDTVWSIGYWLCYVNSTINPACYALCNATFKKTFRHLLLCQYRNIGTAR
Sequence of Muscarinic acetylcholine receptor M3 (P20309 whole entry): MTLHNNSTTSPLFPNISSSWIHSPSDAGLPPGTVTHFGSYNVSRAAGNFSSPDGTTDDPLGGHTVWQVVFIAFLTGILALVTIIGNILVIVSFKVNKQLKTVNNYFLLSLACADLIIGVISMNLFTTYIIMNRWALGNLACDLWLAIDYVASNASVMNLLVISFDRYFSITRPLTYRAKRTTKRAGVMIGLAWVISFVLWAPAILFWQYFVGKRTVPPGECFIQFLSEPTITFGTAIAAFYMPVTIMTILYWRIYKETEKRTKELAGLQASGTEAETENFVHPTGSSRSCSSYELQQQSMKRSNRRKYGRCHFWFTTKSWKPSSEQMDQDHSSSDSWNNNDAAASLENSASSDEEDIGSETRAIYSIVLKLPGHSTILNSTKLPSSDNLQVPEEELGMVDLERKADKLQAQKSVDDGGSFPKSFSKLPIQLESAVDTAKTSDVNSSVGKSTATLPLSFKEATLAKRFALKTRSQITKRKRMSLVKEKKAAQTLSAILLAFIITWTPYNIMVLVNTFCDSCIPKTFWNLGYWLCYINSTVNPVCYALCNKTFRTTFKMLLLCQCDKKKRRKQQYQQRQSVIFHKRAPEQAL
Sequence of Sigma non-opioid intracellular receptor 1 (Q99720 whole entry): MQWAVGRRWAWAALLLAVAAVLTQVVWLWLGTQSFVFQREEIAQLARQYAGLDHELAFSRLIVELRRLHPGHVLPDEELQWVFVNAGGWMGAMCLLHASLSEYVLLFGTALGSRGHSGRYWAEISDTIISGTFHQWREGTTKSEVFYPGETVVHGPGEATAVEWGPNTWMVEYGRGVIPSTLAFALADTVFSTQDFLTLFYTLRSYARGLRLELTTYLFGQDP

`C[C@H]1CN(CCCOC(=O)[C@H]2Cc3ccc(O)cc3CN2)CC[C@@]1(C)c1cccc(O)c1`: the results for the Kb in [1] and in data set [4] were 174 nM and 93.3 nM, respectively. For the same compound, the results for the Ki in data set [2], in data set [3] and in [5] were 221 nM, 6.55 nM and 25.2 nM, respectively.

Consider `CCOC(=O)C(CN1CC[C@@](C)(c2cccc(O)c2)[C@@H](C)C1)OC(=O)[C@H]1Cc2ccc(O)cc2CN1` (some centres not stated), for which the Kb was 2.4 nM in data set [1] and less than 5010 nM in data set [4]. The inhibitory constant (Ki) – broadly, the equilibrium dissociation constant of an inhibitor or competing ligand from its target – worked out at 1060 nM in data set [2], 26.5 nM in [3] and 1.72 nM in data set [5].

In the case of `Cc1ccc(S(=O)(=O)NCc2ccc(C(=O)NCCN(Cc3ccccc3)C(C)(C)C)cc2)cc1`, the Ki in data set [6], in data set [7], in [9] and in data set [10] was less than 1000 nM each time. The half-inhibitory concentration (IC50) (in general, the concentration that gives 50% inhibition) in data set [8] is greater than 32 µM; in data set [11] it was 60 nM; in data set [12] it was 30 nM.

Consider `Cc1ccc(S(=O)(=O)NCc2ccc(C(=O)NCCN(Cc3ccc(Br)cc3)C(C)C)cc2)cc1`, for which the IC50 in data set [13] and in data set [8] was greater than 32 µM throughout.

`CC1CN(CCCc2ccccc2)C2C[C@H](NCC3CC3)CC1(c1cccc(O)c1)C2` (some centres not stated): the EC50 (commonly the concentration giving half of the maximal effect) in [14] was 130 µM; in [15] it was greater than 5 µM; in data set [16], greater than 5 µM.

Take `COc1ccc(N2CCN(CCCNC(=O)Cn3c(=O)c4cccn4c4cc(Br)cnc43)CC2)cc1`: the IC50 in data set [8] is greater than 32 µM.

Consider `CC(C)[C@@H](CN1CC[C@@](C)(c2cccc(O)c2)[C@@H](C)C1)NC(=O)CCc1ccc(O)cc1`, for which, in data set [17], the Ke came out at 450 nM.

Consider `COc1ccc(N2CCN(CCCNC(=O)Cn3c(=O)c4cccn4c4c(C)ccnc43)CC2)c(OC)c1`, for which the IC50 in data set [8] is greater than 32 µM; in data set [11], 190 nM; in data set [12] it was 4 nM.

Consider `CC(C)CC(=O)N1Cc2cc(O)ccc2C[C@@H]1C(=O)N[C@H](CN1CC[C@@](C)(c2cccc(O)c2)[C@@H](C)C1)C(C)C`, for which the Ke in data set [18] was 29 nM; in data set [17], 628 nM; in data set [19], 0.16 nM.

`CCN(CCNC(=O)c1ccc(CNS(=O)(=O)c2ccc(C)cc2)cc1)Cc1ccccc1`: the IC50 in [8] was greater than 32 µM.

For the compound `C[C@H]1CN(CCOC(=O)[C@H]2Cc3ccc(O)cc3CN2)CC[C@@]1(C)c1cccc(O)c1`, the Kb in data set [1] is 135 nM; in data set [4], 97.7 nM. In addition, the Ki in data set [2] is 475 nM; in data set [3], 186 nM; in data set [5] it was 159 nM.

As for `CC(C)[C@@H](CN1CC[C@@](C)(c2cccc(O)c2)[C@@H](C)C1)NC(=O)[C@H]1Cc2ccc(O)cc2CN1` [JDTIC], the values for the inhibitory constant (Ki) in [20] and in data set [21] were 2.16 nM and greater than 300 nM, respectively.

In the case of `Cc1cc(C)cc([C@@H]2CCCN2Cc2ccc(Oc3ccc(C(N)=O)cc3F)cc2)c1` [ATICAPRANT], the ED50 in [22] amounted to 0.4 mg/kg. Moreover, the values for the peak concentration (Cmax) in [23] and in [32] were 95 ng/mL and 334 ng/mL, respectively. Moreover, the half-life (commonly the time in which the quantity being followed falls by half) in [24] is 108 min; in data set [25], 228 min. Also, in data set [26], the bioavailability – broadly, dose-corrected exposure relative to a reference, in per cent – amounted to 25.4%. The AUC (as a rule, concentration integrated over time) in data set [27] turned out to be 186 ng·h/mL; in data set [33], 466 ng·h/mL. Moreover, the Tmax – broadly, the time at which the peak concentration occurs – came out at 0 h in data set [28] and 2 h in data set [30]. Moreover, in data set [29], the Ratio worked out at 43. The clearance (in general, a measure of how efficiently the substance is removed, as volume per time) in data set [31] is 89.3 mL/min/kg.

With `CC(C)CNCc1ccc(-c2ccccc2S(=O)(=O)N2CCCC2)cc1` [PF-04455242], the ED50 in [34] worked out at 2.3 mg/kg. Moreover, the Activity in data set [35] turned out to be 82%. Further, the ID50 in data set [36] amounted to 8.6 mg/kg; in data set [37], 2 mg/kg.

With `O=C1N[C@@H](Cc2ccccc2)C(=O)N2CCC[C@H]2C(=O)N[C@@H](Cc2ccccc2)C(=O)N[C@H]1Cc1c[nH]c2ccccc12` (cyclo(FPFW)), the Kb in data set [38] was 65.2 nM; in data set [39], 10.2 nM. In data set [40], the Time was greater than 24 h.
